Here are results for one compound from US20250152702A1, “EPICHAPEROME INHIBITION TO IMPROVE T CELL RESPONSES” (priority 2023, published 2025).

“Also recorded” adds a separate entry of the source. Read-outs that look alike come from different tables or passages of the source. Where only a bound is given, the exact number is not on record here.

For one data set, the system named is IFNγ-secreting T cells. In words: OVA immunization of mice, OVA-specific T cell response by IFNγ ELISPOT. Type of data set: in vivo, C57BL/6 mice. As for the experimental part: (§1) FIGS. 3A-3H. Disruption of the epichaperome using PU-H71 improves OVA-specific T cells response and anti-tumor immune response in a mouse model. (A) C57BL/6 (B6) mice were injected intraperitoneally (i.p.) with PU-H71 (75 mg/kg) n=8 or PBS n=8 on days 0, 3 and 7. On day 1, all mice were immunized subcutaneously (s.c.) with 100 μg OVA emulsified in incomplete Freund's adjuvant (IFA), experimental controls shown in schema. Peripheral blood (PB) was collected on days 0, 5 and 9, and the spleen was collected at the end of the experiment, on day 9. (B, C) T cell immunization against OVA was assessed by measuring IFN[…] release from T cells after exposure with OVA using Elispot assay. Two-tailed T test (D) Anti-OVA IgG in serum was assessed by ELISA. (E) B6 mice were immunized with OVA treated with PU-H71 (75 mg/kg) n=8 or PBS n=8 on days 11, 15 and 18. PB and spleen were collected at the end of the experiment, on day 20. (F) T cell immunization against OVA was assessed by measuring IFN[…] by Elispot assay. […] On day 7 after immunization, mice challenged with OVA-expressing EG.7 tumor cells (H) tumor volume was assessed every 2-3 days using calipers. p values shown for day 13 assessment by one-way ANOVA.
(§2) The effects of an epichaperome disrupter, PU-H71, were tested on C57BL/6 mice immune responses to ovalbumin (OVA) immunization. OVA-specific T- and B-cell responses were evaluated by ELISPOT and ELISA, respectively. […]
In vivo: In vivo assessment in immunization model: the well-characterized in vivo immunization model that utilizes chicken ovalbumin (OVA) will be used. […] Antibody production against OVA will be assessed in the peripheral blood (PB) at day 9 to confirm that the immunization took place (40). PU-H71 will be evaluated at different dosing schedules: before OVA administration to assess an effect on priming, shortly after OVA administration to assess an effect on T cell proliferation and polarization, and after the response has been completed (11 days) to evaluate an effect on the already ongoing response (for this cohort, mice will be sacrificed 9 days after PU-H71 treatment). […]

The subject of the next data set is anti-OVA IgG. In words: OVA immunization of mice, anti-OVA antibody by ELISA. Type of data set: in vivo, C57BL/6 mice. The note with it: PU-H71 at the time of priming. The protocol:
as §1, with “PB and spleen were collected at the end of the experiment, on day 20.” left out
as §2
For orientation: ELISA stands for enzyme-linked immunosorbent assay.

In data set [1] the test system is E.G7 (OVA+) lymphoma cells. In words: Anti-tumor response in OVA-immunized mice challenged with E.G7 lymphoma. Type of data set: in vivo, C57BL/6 mice. As for the experimental part:
as §1, with “ANOVA. […]” for “ANOVA.”
In vivo assessment in an anti-tumor response model: E.G7 cells are OVA-expressing cells derived from the C57BL/6 (H-2b) mouse lymphoma cell line EL4, allowing for the establishment of a syngeneic lymphoma mouse model to evaluate anti-tumor protection after OVA immunization (39). […] At day 7 after immunization, lymphoma cells will be injected subcutaneously into the mice, and tumor growth will be evaluated twice a week using micro calipers. Tumor volume will be determined as mm^3=length×width^2 (41). Survival will be also determined as an endpoint (mice will be euthanized when tumor size reaches 2000 mm^3 or the animals lose more than 10% of weight). Differences in tumor growth and survival will be determined in mice immunized with OVA and PU-H71 compared to the controls OVA+IFA or no immunization. […]

Data set [2] has as its system NALM6 (CD19+ B-ALL cell line). As for the experimental part: FIGS. 7A-7C. […] (A) Schematic representation. CART19/4-1BB or control T cells were cultured with NALM6 (CD19^+ B-ALL cell line) for 18 h at a E:T ratio of 1:1. (B) Cytotoxicity was evaluated by flow cytometry and represented as relative to the number of dead cells in the control cells (no effector cells). Experiment performed in triplicate, Error bar represents the SEM, significance assessed using ANOVA test. (C) In vivo testing.
To better understand its effect on human T cells and its potential adjuvant effect during cellular therapy, in vitro and in vivo chimeric antigen receptor (CAR)-T cell (CAR-T cells) phenotype and function in the presence of PU-H71 was tested. […] Finally, the therapeutic effect of the combination of PU-H71 and CART19 was evaluated in a B-ALL NSG mouse model using NALM6-BLIV cells, with bioluminescence imaging and flow cytometry (CART19 and leukemic cells) monitoring.
To investigate the impact of epichaperome disruption on CAR T cells, CART19/4-1BB was generated and tested. […] Subsequently, the impact of epichaperome disruption on the function of CART19/4-1BB cells was assessed during co-culture with leukemia cells expressing CD19. The cytotoxic effect of CART19/4-1BB cells against Nalm-6 (CD19^+ B-ALL cell line) was measured with or without 1 μM PU-H71 (FIG. 7).

Another data set deals with NALM6-BLIV cells. The data set is described as follows: B-ALL NSG mouse model with NALM6-BLIV cells, PU-H71 combined with CART19. Type of data set: in vivo. The protocol: Nalm-6 xenograft: Xenografts will be initiated using CD19^+ B-cell acute lymphoblastic leukemia (B-ALL), Nalm-6 cells expressing luciferase and GFP (BLIV/GFP) transplanted into NSG mice (59). Anti-CD19 CAR T cells (CART19/4-1BB) or non-transduced T cells (NTC) will be administered once engraftment is confirmed by bioluminescence and flow cytometry. Four treatment cohorts will be studied: (1) saline, (2) PU-H71 (75 mg/kg i.p. bi-weekly), (3) CART19/4-1BB, (4) PU-H71 (75 mg/kgi.p. bi-weekly)+CART19/4-1BB. Each cohort will consist of 8 mice, ensuring >80% power at two-sided alpha of 0.05 to detect a standardized effect size of 1.6 in tumor burden and immune cell modulation, and will include both male and female mice. The PU-H71 dose and schedule will be determined based on data (9, 17). Tumor progression will be monitored weekly using bioluminescence imaging, with CAR T cell percentage and phenotype assessed in PB from day 2 onwards and every subsequent week, as published previously (17, 59). Bone marrow (BM) aspirates on day 14 will assess tumor burden and CAR T persistence. At the endpoint, the spleen, BM, and PB will be harvested to determine leukemia burden and CAR T cell phenotype.

A further data set relates to activated T cells. In words: Activated human T cells treated with PU-H71: survival and surface phenotype by flow cytometry. Type of data set: cell-based. The protocol:
FIGS. 2A-2D. Epichaperomes are formed in activated T cells and their disruption impacts T cell activation phenotype but not survival. (A) Resting T cells from healthy donors were assayed for the abundance of epichaperomes by flow cytometry. (B) Purified T cells activated with anti-CD3/CD28 beads were tested for changes in epichaperome abundance 20 h after activation and compared with resting T cells and MV4-11 as a positive control. n=3, One-way ANOVA ** p<0.002, *** p<0.0002 (C, D) T cells were treated with 1 μM PU-H71 upon activation to assess the effect of epichaperome disruption on survival (C) and cell surface phenotype (CD4, CD8, CD25, CD69, HLA-DR) n=3 *p<0.03 two-tailed T-test (D).
Thus, epichaperome formation skews the balance of T cell populations and functions towards an immunosuppressive outcome, a balance that can be restored to a cytotoxic function by epichaperome disruptors. This leads to a role of epichaperome disruptors, such as PU-H71, in CAR T cell cytotoxicity and the ability of epichaperome disruptors, such as, PU-H71, to improve the outcomes of AML patients in the post-transplant setting by improving GvL without affecting GvHD.

The subject of data set [3] is acute myeloid leukemia (AML). Particulars: cited from earlier work; for exacerbation of GvHD in the patient: patient with donor T cell chimerism after failed allo-HSCT; for duration of complete remission: single agent, AML patient with high epichaperome abundance, post-transplant relapse.
The test system of the next data set is Hsp90. Particulars: cited from earlier work.

For `CC(C)NCCCn1c(Sc2cc3c(cc2I)OCO3)nc2c(N)ncnc21` [PU-H71, 8-[(6-iodo-1,3-benzodioxol-5-yl)sulfanyl]-9-[3-(propan-2-ylamino)propyl]purin-6-amine], in the data set with IFNγ-secreting T cells (PU-H71 75 mg/kg i.p. at the time of priming, OVA immunization, ELISPOT, n=8, controls 42, p=0.0002), the “number of IFNγ-secreting T cells (median)” value is recorded as 126 per million of cells. Besides, the “effect on OVA-specific T cell response” value in the data set with IFNγ-secreting T cells (PU-H71 administered once the OVA-specific T cell response was ongoing) was “no effect”. For the same compound, in the data set with IFNγ-secreting T cells (PU-H71 at the time of priming), the “impact on T cell phenotype” value is given as “without overt impact; also recorded: without an impact”. The “impact on anti-OVA antibody levels” value in the data set with anti-OVA IgG is given as “without overt impact; also recorded: without an impact”. The “in vivo anti-tumor immune response / tumor progression” value in data set [1] (OVA-primed mice plus PU-H71, E.G7 challenge) is “significantly decreases tumor progression; also recorded: improved in vivo anti-tumor immune responses”. Moreover, the “ability to control tumor progression” value is reported as 16 days in data set [1] (PU-H71 without immunization, n=6); 18 days in data set [1] (mice immunized against OVA without IFA and treated with PU-H71, OVA alone 16 days, saline 14 days, n=8). In addition, the “in vitro cytotoxicity of CAR-T cells toward NALM6 B-ALL cells” value in data set [2] came out at 74.66%. Also, the “CART19 numbers in the bone marrow” value with NALM6-BLIV cells was “increases CART19 numbers in the bone marrow”. Also, the “in vivo antitumor efficacy of CART19 against NALM6” value in the data set on NALM6-BLIV cells is given as “improves their in vivo antitumor efficacy”. Also, in the data set with activated T cells (1 μM PU-H71 upon activation), the “CD4 to CD8 ratio” value was “increase of CD8^+ cells; also recorded: skewed towards more CD8^+ cells”. For the same compound, the “expression of activation marker CD69” value with activated T cells (1 μM PU-H71 upon activation) was “not significantly changed”. Moreover, the “viability of activated T cells” value in the data set on activated T cells (1 μM PU-H71 upon activation with anti-CD3/CD28 beads) was “no detrimental effect”. Further, in data set [3] (patient treated for >5 yrs), the “myelosuppression and drug-related toxicities” value is recorded as “without significant myelosuppression or drug-related extramedullary toxicities”. The figures for the “exacerbation of GvHD in the patient” value in data set [3], in data set [3] (listed as Zelavespib) and in data set [3] (listed as zelavespib) were “did not exacerbate GvHD; also recorded: did not exacerbate these symptoms”, “without exacerbation of GvHD” and “no clinically relevant exacerbation”, respectively. The “time to complete remission (CR)” value in data set [3] (single AML patient) was ≤ 45 days. Moreover, the “duration of complete remission” value in data set [3] is listed as “over five years”; in data set [3] (listed as Zelavespib) it was > 5 years; in data set [3] (listed as zelavespib) it was “over 5 years”. Moreover, the “binding preference for Hsp90 form” value with Hsp90 is given as “preferential binding to Hsp90 when it is in the highly integrated complexed form that is the epichaperome”.
